Target: T1, AtGTR2 (Arabidopsis thaliana, UniProt Q9LV10)
T1 construct: expressed in transfected cells; host or cells: Xenopus oocytes injected with in vitro transcribed cRNA (vector pNB1u)
T1 sequence (Q9LV10 1-616): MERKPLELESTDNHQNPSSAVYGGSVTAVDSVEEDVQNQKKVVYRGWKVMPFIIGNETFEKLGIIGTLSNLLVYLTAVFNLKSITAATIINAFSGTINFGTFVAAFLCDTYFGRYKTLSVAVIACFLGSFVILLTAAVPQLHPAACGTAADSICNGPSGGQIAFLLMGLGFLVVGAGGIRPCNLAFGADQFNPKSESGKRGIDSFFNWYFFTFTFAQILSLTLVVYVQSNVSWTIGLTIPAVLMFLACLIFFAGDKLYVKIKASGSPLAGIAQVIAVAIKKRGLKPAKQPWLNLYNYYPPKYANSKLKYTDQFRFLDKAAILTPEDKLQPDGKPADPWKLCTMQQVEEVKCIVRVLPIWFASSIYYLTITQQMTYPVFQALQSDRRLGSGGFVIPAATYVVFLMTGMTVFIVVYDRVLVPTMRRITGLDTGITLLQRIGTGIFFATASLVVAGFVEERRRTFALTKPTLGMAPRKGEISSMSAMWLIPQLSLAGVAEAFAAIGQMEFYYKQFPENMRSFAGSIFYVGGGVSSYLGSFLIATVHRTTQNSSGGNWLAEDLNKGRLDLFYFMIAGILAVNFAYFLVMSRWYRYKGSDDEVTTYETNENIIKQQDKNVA
Experiment: Glucosinolate uptake by AtGTR2 expressing oocytes, LC-MS analysis of oocyte extracts
Format: cell-based
Details: data not shown

CSCCCC/C(=N/OS(=O)(=O)O)S[C@@H]1O[C@H](CO)[C@@H](O)[C@H](O)[C@H]1O [4-MTB, 4-methylthiobutyl glucosinolate]
uptake by AtGTR2 measured by LC-MS analysis of oocyte extracts: took up

— US20140137294A1, “GLUCOSINOLATE TRANSPORTER PROTEIN AND USES THEREOF” (UNIVERSITY OF COPENHAGEN, priority 2010, published 2014)
